{"source": "the NIST ThermoML archive (doi:10.1021/je500804j)", "assay": "mn = molality of the nth substance listed, in mol/kg", "conditions": "101 kPa, Liquid, Alternating current cell with electrodes", "note": "Numbers after ± are expanded uncertainties.", "data": [{"smiles": "CCCCCCCC[N+](C)(C)CCCCCC[N+](C)(C)CCCCCCCC.[Br-].[Br-]", "note": "+ O", "values": [{"measurement": "electrical conductivity", "setting": "298.15 K, m1 = 0.1236", "value": "1.124 ± 0.0045", "unit": "S/m"}, {"measurement": "electrical conductivity", "setting": "298.15 K, m1 = 0.1251", "value": "1.13 ± 0.0046", "unit": "S/m"}, {"measurement": "electrical conductivity", "setting": "303.15 K, m1 = 0.00379", "value": "0.0878 ± 0.00042", "unit": "S/m"}, {"measurement": "electrical conductivity", "setting": "303.15 K, m1 = 0.00748", "value": "0.1271 ± 0.0006", "unit": "S/m"}, {"measurement": "electrical conductivity", "setting": "303.15 K, m1 = 0.01108", "value": "0.1968 ± 0.00088", "unit": "S/m"}, {"measurement": "electrical conductivity", "setting": "303.15 K, m1 = 0.01459", "value": "0.2594 ± 0.0011", "unit": "S/m"}, {"measurement": "electrical conductivity", "setting": "303.15 K, m1 = 0.01801", "value": "0.3174 ± 0.0013", "unit": "S/m"}, {"measurement": "electrical conductivity", "setting": "303.15 K, m1 = 0.02135", "value": "0.3714 ± 0.0015", "unit": "S/m"}, {"measurement": "electrical conductivity", "setting": "303.15 K, m1 = 0.02461", "value": "0.4209 ± 0.0017", "unit": "S/m"}, {"measurement": "electrical conductivity", "setting": "303.15 K, m1 = 0.02779", "value": "0.4681 ± 0.0019", "unit": "S/m"}, {"measurement": "electrical conductivity", "setting": "303.15 K, m1 = 0.0309", "value": "0.5124 ± 0.0021", "unit": "S/m"}, {"measurement": "electrical conductivity", "setting": "303.15 K, m1 = 0.03394", "value": "0.5542 ± 0.0022", "unit": "S/m"}, {"measurement": "electrical conductivity", "setting": "303.15 K, m1 = 0.03691", "value": "0.5939 ± 0.0024", "unit": "S/m"}, {"measurement": "electrical conductivity", "setting": "303.15 K, m1 = 0.03981", "value": "0.6314 ± 0.0026", "unit": "S/m"}, {"measurement": "electrical conductivity", "setting": "303.15 K, m1 = 0.04264", "value": "0.6668 ± 0.0027", "unit": "S/m"}, {"measurement": "electrical conductivity", "setting": "303.15 K, m1 = 0.04542", "value": "0.7005 ± 0.0028", "unit": "S/m"}, {"measurement": "electrical conductivity", "setting": "303.15 K, m1 = 0.04813", "value": "0.7326 ± 0.003", "unit": "S/m"}, {"measurement": "electrical conductivity", "setting": "303.15 K, m1 = 0.05078", "value": "0.7638 ± 0.0031", "unit": "S/m"}, {"measurement": "electrical conductivity", "setting": "303.15 K, m1 = 0.05338", "value": "0.7917 ± 0.0032", "unit": "S/m"}, {"measurement": "electrical conductivity", "setting": "303.15 K, m1 = 0.05592", "value": "0.8194 ± 0.0033", "unit": "S/m"}, {"measurement": "electrical conductivity", "setting": "303.15 K, m1 = 0.05841", "value": "0.8457 ± 0.0034", "unit": "S/m"}, {"measurement": "electrical conductivity", "setting": "303.15 K, m1 = 0.06085", "value": "0.8704 ± 0.0035", "unit": "S/m"}, {"measurement": "electrical conductivity", "setting": "303.15 K, m1 = 0.06324", "value": "0.8926 ± 0.0036", "unit": "S/m"}, {"measurement": "electrical conductivity", "setting": "303.15 K, m1 = 0.06558", "value": "0.9126 ± 0.0037", "unit": "S/m"}, {"measurement": "electrical conductivity", "setting": "303.15 K, m1 = 0.06787", "value": "0.9342 ± 0.0038", "unit": "S/m"}, {"measurement": "electrical conductivity", "setting": "303.15 K, m1 = 0.07011", "value": "0.9547 ± 0.0039", "unit": "S/m"}, {"measurement": "electrical conductivity", "setting": "303.15 K, m1 = 0.07232", "value": "0.9738 ± 0.0039", "unit": "S/m"}, {"measurement": "electrical conductivity", "setting": "303.15 K, m1 = 0.07448", "value": "0.9921 ± 0.004", "unit": "S/m"}, {"measurement": "electrical conductivity", "setting": "303.15 K, m1 = 0.07659", "value": "1.01 ± 0.0041", "unit": "S/m"}, {"measurement": "electrical conductivity", "setting": "303.15 K, m1 = 0.07867", "value": "1.026 ± 0.0041", "unit": "S/m"}, {"measurement": "electrical conductivity", "setting": "303.15 K, m1 = 0.08071", "value": "1.04 ± 0.0042", "unit": "S/m"}, {"measurement": "electrical conductivity", "setting": "303.15 K, m1 = 0.08271", "value": "1.055 ± 0.0043", "unit": "S/m"}, {"measurement": "electrical conductivity", "setting": "303.15 K, m1 = 0.08467", "value": "1.069 ± 0.0043", "unit": "S/m"}, {"measurement": "electrical conductivity", "setting": "303.15 K, m1 = 0.0866", "value": "1.082 ± 0.0044", "unit": "S/m"}, {"measurement": "electrical conductivity", "setting": "303.15 K, m1 = 0.08849", "value": "1.094 ± 0.0044", "unit": "S/m"}, {"measurement": "electrical conductivity", "setting": "303.15 K, m1 = 0.09034", "value": "1.107 ± 0.0045", "unit": "S/m"}, {"measurement": "electrical conductivity", "setting": "303.15 K, m1 = 0.09217", "value": "1.118 ± 0.0045", "unit": "S/m"}, {"measurement": "electrical conductivity", "setting": "303.15 K, m1 = 0.09396", "value": "1.129 ± 0.0046", "unit": "S/m"}, {"measurement": "electrical conductivity", "setting": "303.15 K, m1 = 0.09572", "value": "1.139 ± 0.0046", "unit": "S/m"}, {"measurement": "electrical conductivity", "setting": "303.15 K, m1 = 0.09745", "value": "1.148 ± 0.0046", "unit": "S/m"}, {"measurement": "electrical conductivity", "setting": "303.15 K, m1 = 0.09915", "value": "1.158 ± 0.0047", "unit": "S/m"}, {"measurement": "electrical conductivity", "setting": "303.15 K, m1 = 0.1008", "value": "1.168 ± 0.0047", "unit": "S/m"}, {"measurement": "electrical conductivity", "setting": "303.15 K, m1 = 0.1025", "value": "1.175 ± 0.0047", "unit": "S/m"}, {"measurement": "electrical conductivity", "setting": "303.15 K, m1 = 0.1041", "value": "1.183 ± 0.0048", "unit": "S/m"}, {"measurement": "electrical conductivity", "setting": "303.15 K, m1 = 0.1057", "value": "1.191 ± 0.0048", "unit": "S/m"}, {"measurement": "electrical conductivity", "setting": "303.15 K, m1 = 0.1072", "value": "1.198 ± 0.0048", "unit": "S/m"}, {"measurement": "electrical conductivity", "setting": "303.15 K, m1 = 0.1087", "value": "1.206 ± 0.0049", "unit": "S/m"}, {"measurement": "electrical conductivity", "setting": "303.15 K, m1 = 0.1103", "value": "1.215 ± 0.0049", "unit": "S/m"}, {"measurement": "electrical conductivity", "setting": "303.15 K, m1 = 0.1118", "value": "1.22 ± 0.0049", "unit": "S/m"}, {"measurement": "electrical conductivity", "setting": "303.15 K, m1 = 0.1132", "value": "1.228 ± 0.005", "unit": "S/m"}]}]}
